Results as given in the SangsterLogP compilation.

Compound	logP
c1ccc(C2(N3CCCCC3)CCCCC2)cc1	5.74
C[C@H]1CCCC[C@@]1(c1ccccc1)N1CCCCC1	6.75
CO[C@@H]1CCCC[C@]1(c1cccs1)N1CCCCC1	4.89
C[C@H]1CCCC[C@@]1(c1cccs1)N1CCCCC1	7.29
CO[C@H]1CCCC[C@@]1(c1ccccc1)N1CCCCC1	4.73
c1csc(C2(N3CCCCC3)CCCCC2)c1	6.02
CC1CCC(c2ccccc2)(N2CCCCC2)CC1 (stereo not given)	5.66
C[C@H]1CCC[C@](c2ccccc2)(N2CCCCC2)C1	5.86
C[C@@H]1CC(C)(C)C[C@](c2ccccc2)(N2CCCCC2)C1	6.35
CC(C)(C)C1CCC(c2ccccc2)(N2CCCCC2)CC1 (stereo not given)	6.67
